Patent EP0773287A1, “Immortalised embryonic hyppocampal cells and their use” (BAYER AG, priority 1995, dated 1997)
Like-named read-outs stand apart in the source and are kept apart here.

Tests used:
Assay type in all cases: cell-based, murine
[1] = tested on: HNMMCV13.1.F; experiment: Ca2+-imaging (Fura-2) of intracellular calcium after application of agonists; conditions: for rise in intracellular calcium concentration (result in words): HNMMCV13.1.F, concentrations (glutamate 10µM to 10 mM; AMPA, kainic acid, serotonine, dopamine, carbachol up to 1mM; NMDA up to 500µM)
Experimental: (§1) Fluorescent Probe: Dynamic changes of intracellular calcium concentration were measured using the Fura-2 fluorescent probe (Roe et al. 1990, Cell Calcium 11:63-73). This fluorescent dye was chosen because of its selectivity, high quantum yield and extinction co-efficient. Fura-2 permeates the living cell as a acetoxymethylester and becomes trapped within the cell after hydrolysis by intracellular esterases. The calcium-sensitive free acid of Fura-2 is able to bind to calcium ions inside the cell. Fura-2 has an excitation maximum at 380 nm and the Fura2/calcium complex peaks at 340 nm. A change in intracellular calcium concentration was calculated by recording fluorescent video images at wavelengths of 340nm and 380nm excitation and 510nm emission and by dividing the grey values of the digitized video images of 380nm from 340nm.
(§2) Loading cells with Fura-2: A stock solution with 2mM Fura-2-acetoxymethylester in dimethylsulfoxide (DMSO) was diluted to 5-10 µM with serum free Minimal Essential Medium (MEM, Gibco) containing 1.5% bovine serum albumin and 5 mM calcium chloride. The cells were incubated in a Falcon 96 well plate for 45-60 minutes at 37°C. Subsequently the cells were washed twice in N-(2-Hydroxyethyl)piperazine-N'-(2-ethanesulfonic acid) (HEPES, 5mM) buffered Tyrode solution (HEPES buffered salt solution containing 130 mM NaCl, 5 mM KCl, 2 mM CaCl2, 1 mM MgCl2, 5mM NaHCO3, 11 mM Glucose).
(§3) Imaging procedure: 100 µl of Tyrode buffer was added to the plate wells and the cells were sequencially exposed to light at 340 nm and 380 nm under a fluorescent microscope (Nikon Diaphot). The exposition time was 100 ms. A series of video images at 3 second intervals was acquired and stored as digitised pictures in the image boards of an image analysis computer (Leica, Quantimet 570). After the acquisition of 8 images the test substances were applied. The grey levels of the cells, which correspond to the fluorescence intensity, were measured in the recorded video images. The ratio was determined by dividing the measured grey levels of the "380 nm images" by the grey levels of the "340 nm images" either from averaged images or from individual cells. For averaged results, the grey levels were measured over the whole images.
(§4) The cells were loaded with Fura 2/AM between day 3 and 7 in culture. A number of agonists were tested for their ability to activate specific receptors on the cell surface which lead to a rise in intracellular calcium. The rise in calcium concentration in the cytoplasm can occur after activation of specific calcium channels in the cell membrane, after activation of neurotransmitter receptors directly coupled to ion channels that are permeable to calcium ions (i.e. NMDA or AMPA type glutamate receptors), or by activation of receptors, which propagate the signal through the activation of specific G-proteins, which regulate the activity of different enzymes in the interior of the cell (Connor, Cell Calcium 14 (1993), 185-200; Crouch and Hendry, Medical Res. Rev. 13 (1993), 105-123). The activation of phospholipase C generates the second messengers diacylglycerol and inositoltriphosphate from phospholipids in the cell membrane. The binding of inositoltriphosphate to receptors localised on internal vesicles which store calcium ions leads to a transient rise in the concentration of calcium ions in the cytoplasm (Berridge, M.J. 1993, Nature 361: 315-325).

[2] = tested on: HC e/n XV.B cells; experiment: as above
Experimental: as §1, §2, §3, §4

[3] = tested on: HNMMCV13.1.E; experiment: as above; conditions: HNMMCV13.1.E
Experimental: as §1, §2, §3, §4

[4] = tested on: HNMMCV14.1.A; experiment: as above; conditions: HNMMCV14.1.A
Experimental: as §1, §2, §3, §4

[5] = tested on: HNMMCV11.2.0; experiment: as above; conditions: HNMMCV11.2.0
Experimental: as §1, §2, §3, §4

[6] = tested on: HC e/n XVB cells; experiment: Whole-cell patch-clamp recording of ligand-activated currents; conditions: for ligand-activated currents (electrophysiological recordings): membrane potential clamped to -70mV; for ligand-induced inward currents (result in words): differentiated HC e/n XVB cells, AMPA 100µM, NMDA 1mM, kainate 1mM, glutamate 1mM
Experimental: (§5) Electrophysiological setup: Membrane currents were measured with the patchclamp technique in the whole-cell recording configuration (Hamill et al. 1981, Pfluegers Arch. 391:85-100). Current signals were amplified with conventional electronics (EPC-9 amplifier, HEKA Elektronik GmbH, Lambrecht, Germany), filtered at 10kHz, and sampled at 5 kHz by an interface connected to an IBM AT-compatible computer system, which also served as a stimulus generator.
(§6) Solutions and electrodes: The standard bathing solution contained (in mM): Nacl 150, KCL 5, MgCl2 1.8, HEPES 5, and glucose 10. In some experiments an equimolar amount of NaCl was replaced by 5mM BaCl2. Recording pipettes had resistances about 5MΩ (Hilgenberg, Malsfeld, Germany). The pipettes contained (in mM): KCL 140, CaCl2 0.5, EGTA 5, MgCl2 2, and HEPES 10. The pH was adjusted to 7.4. In some experiments the pipette solution was designed to minimize the contribution of voltage-activated currents. In this case, investigating the ligand-activated currents, the pipette solution contained (in mM): CsCl 140, EGTA 10, and HEPES 10.
(§7) Ligands were dissolved in the extracellular saline solution and applied via an U-tube application system. To record ligand-induced currents, the membrane potential was clamped to -70mV. For measurements of voltage-activated currents, cells were held at -70mV and every second the membrane was stepped through a 50 msec. de- or hyperpolarising test pulse to a potential between -170 and +20 mV.

[7] = tested on: metabotropic glutamate receptor(s) (mGluR) expressed by HNMMCV14.1A cells; experiment: Phosphoinositide hydrolysis: accumulation of 3H-inositol phosphates; conditions: for EC50: read-out: EC50 inositolphosphate accumulation
Experimental: Phosphoinositide hydrolysis was determined by measuring the accumulation of ^3H-inositol phosphates. The cells were plated in 48-well plates (Costar) at a density of 10000 cells per well and incubated for 4-5 days at 37°C, 7% CO2. Then the cells were labeled by incubation with 4 µCi of myo-2-^3H-inositol per ml medium (specific activity: […]: Amersham). After 24 h LiCl (10 mM final concentration) was added to the cells for 1 h. Agonists were then added at the concentrations indicated. The incubation was stopped after 1 h by replacing the medium with 200 µl ice-cold methanol. 400 µl of destilled water was added and the sample was directly applied to AG-1X8 ion exchange columns (AG-1X8 resin: BioRad). Free inositol and glycerophosphoryl-inositol were washed away with 16 ml destilled water followed by 10 ml 5 mM disodium-tetraborate, 60 mM sodium formate. Total ^3H-inositol phosphates (IP1, IP2, IP3) were eluted with 7 ml of 100 mM formic acid, 1 M ammonium formate. Radioactivity of the eluted ^3H-inositol phosphates was determined by liquid scintillation counting after addition of 13 ml liquid scintillation cocktail (Ultima Gold: Canberra Packard). Measurements were performed in triplicates for each experimental point. Untreated controls were set as 100% and the other values calculated in relation to this.
The columns were prepared as follows: 1 ml pipet tips were filled with one glass bead (Roth) per tip before adding 500 µl AG-1X8 resin. The resin was compressed with air and 270 µl seasand was applied. Until use they were stored at 4°C.

[8] = tested on: HNMMCV14.1.A; experiment: Whole-cell patch-clamp recording of ligand-activated currents; conditions: 14.1.A; membrane potential clamped to -70mV
Experimental: as §5, §6, §7

[9] = differentiated HC e/n XV.B cells
[10] = HC e/n XV.B cells, state of differentiation not stated, up to 1mM
[11] = HNMMCV14.1A cells, agonist 1 h, LiCl 10 mM

Compound: L-carboxycyclopropylglycin [L-CCG 1]
- rise in intracellular calcium concentration (result in words) [1]: strong
- rise in intracellular calcium concentration (result in words) [2, 9]: weak signals
- rise in intracellular calcium concentration (result in words) [3]: strong
- rise in intracellular calcium concentration (result in words) [4]: strong
- rise in intracellular calcium concentration (result in words) [5]: strong

Compound: N#Cc1cc2[nH]c(=O)c(=O)[nH]c2cc1[N+](=O)[O-] [CNQX, 6-nitro-7-cyanochinoxalin-2,3-dione]
- antagonism of the calcium signals recorded after application of glutamate ([1]; glutamate 100µM, CNQX 100µM, cells not given, Table 5 gives 13.1.F): not antagonised

Compound: Cc1onc(O)c1CC(N)C(=O)O (centres unmarked) [AMPA, ∝-amino-3-hydroxy-5-methyl-4-isoxazol-propionic acid]
- ligand-activated currents (electrophysiological recordings) ([6]; XV. B/ - EGF): + (+: 10-30% positive cells)
- ligand-induced inward currents (result in words) [6]: evoked responses
- rise in intracellular calcium concentration (result in words) [1]: did not result in a transient rise
- rise in intracellular calcium concentration (result in words) ([2]; undifferentiated HC e/n XV.B cells): did not result in a transient rise
- rise in intracellular calcium concentration (result in words) [3]: did not result in a transient rise
- rise in intracellular calcium concentration (result in words) [4]: did not result in a transient rise
- rise in intracellular calcium concentration (result in words) [5]: did not result in a transient rise

Compound: C[N+](C)(C)CCOC(N)=O [Carbachol]
- rise in intracellular calcium concentration (result in words) [2, 10]: reproducible signal

Compound: NC(C(=O)O)c1cc(O)no1 (centres unmarked) [ibotenate]
- effect on inositolphosphate accumulation (result in words) [7]: concentration dependent increase
- maximum response of inositolphosphate accumulation compared with glutamate [7]: slightly weaker
- EC50 [7]: 5 µM

Compound: CN[C@H](CC(=O)O)C(=O)O [NMDA, N-methyl-D-aspartate]
- ligand-activated currents (electrophysiological recordings) ([6]; XV. B/ - EGF): ++ (++: 30-70% positive cells)

Compound: NCCc1c[nH]c2ccc(O)cc12 [Serotonine]
- rise in intracellular calcium concentration (result in words) [1]: did not lead to a specific signal
- rise in intracellular calcium concentration (result in words) [2, 10]: did not lead to a specific signal
- rise in intracellular calcium concentration (result in words) [3]: did not lead to a specific signal
- rise in intracellular calcium concentration (result in words) [4]: did not lead to a specific signal
- rise in intracellular calcium concentration (result in words) [5]: did not lead to a specific signal

Compound: CC(=O)OCC[N+](C)(C)C [Acetylcholine, acetylcholine]
- ligand-activated currents (electrophysiological recordings) ([6]; XV. B/ - EGF): -
- ligand-activated currents (electrophysiological recordings) [8]: + (+: 10-30% positive cells)

Compound: CN1CCc2cc3c(cc2[C@H]1[C@@H]1OC(=O)c2c1ccc1c2OCO1)OCO3 [bicuculline]
- effect on the GABA-response [6]: blocked

Compound: NCc1cc(=O)[nH]o1 [muscimol]
- effect on the GABA-response ([6]; HC e/n XVB cells): mimicked

Compound: NCCCC(=O)O [GABA]
- ligand-activated currents (electrophysiological recordings) ([6]; XV. B/ - EGF): +++ (+++: 70-100% positive cells)
- ligand-activated currents (electrophysiological recordings) ([6]; XV. B): + (+: 10-30% positive cells)
- ligand-induced inward currents (result in words) [6]: prominent resonses
- ligand-activated currents (electrophysiological recordings) [8]: ++ (++: 30-70% positive cells)

Compound: NCCc1ccc(O)c(O)c1 [Dopamine, dopamine]
- rise in intracellular calcium concentration (result in words) [1]: did not lead to a specific signal
- rise in intracellular calcium concentration (result in words) [2, 10]: did not lead to a specific signal
- rise in intracellular calcium concentration (result in words) [3]: did not lead to a specific signal
- rise in intracellular calcium concentration (result in words) [4]: did not lead to a specific signal
- rise in intracellular calcium concentration (result in words) [5]: did not lead to a specific signal

Compound: N[C@@]1(C(=O)O)CC[C@@H](C(=O)O)C1 [t-ACPD, 1S3R-aminocyclopentane-1,3-dicarboxylate]
- effect on inositolphosphate accumulation (result in words) ([7]; HNMMCV14.1A cells): concentration dependent increase
- maximum response of inositolphosphate accumulation compared with glutamate ([7]; HNMMCV14.1A cells): slightly weaker
- EC50 [7, 11]: 20 µM
- rise in intracellular calcium concentration (result in words) [1]: strong
- rise in intracellular calcium concentration (result in words) [2, 9]: weak signals
- rise in intracellular calcium concentration (result in words) [3]: strong
- rise in intracellular calcium concentration (result in words) [4]: strong
- rise in intracellular calcium concentration (result in words) [5]: strong

Compound: N[C@@H](Cn1oc(=O)[nH]c1=O)C(=O)O [Quisqualate, quisqualate]
- effect on inositolphosphate accumulation (result in words) ([7]; HNMMCV14.1A cells): concentration dependent increase
- maximum response of inositolphosphate accumulation compared with glutamate ([7]; HNMMCV14.1A cells): slightly weaker
- EC50 [7, 11]: 0.02 µM
